Results: patent publication US20120034613A1, “Apparatus and Method for Testing Relationships Between Gene Expression and Physical Appearance of Skin” (NSE Products, Inc., priority 2010, published 2012)

Tested on: EpidermFT™ Skin Model (EFT-400) full thickness skin cultures
Test: Affymetrix GeneChip HG U133 Plus 2.0 microarray global gene expression, agent-exposed vs untreated skin cultures
Format: cell-based, human
Conditions: Salicin 0.5% vs Untreated Control, 24 hr treatment

OCc1ccccc1O[C@@H]1O[C@H](CO)[C@@H](O)[C@H](O)[C@H]1O [Salicin, 2-(Hydroxymethyl)phenyl β-D-glucospyranoside]
up: Direction ABHD2 (221815_at) | Direction ABHD2 (225337_at) | Direction ADAMTS5 (235368_at) | Direction ADAMTS6 (1570351_at) | Direction ADCYAP1 (230237_at) | Direction AHI1 (220841_s_at) | Direction AHI1 (221569_at) | Direction AKR1C1 (1562102_at) | Direction AKT3 (212607_at) | Direction AKT3 (212609_s_at) | Direction AKT3 (222880_at) | Direction AKT3 (224229_s_at) | Direction ALG9 (228817_at) | Direction ANKRD28 (213035_at) | Direction ANKRD28 (229307_at) | Direction ARMC8 (1555281_x_at) | Direction ARNT2 (202986_at) | Direction ATF3 (1554980_a_at) | Direction ATP2A3 (207522_s_at) | Direction BAG2 (209406_at) | Direction BCL2L11 (1558143_a_at) | Direction BNC2 (220272_at) | Direction BNC2 (235723_at) | Direction C1GALT1C1 (238989_at) | Direction C1orf67 /// DNAH14 (242283_at) | Direction C13orf33 (227058_at) | Direction CABLES1 (225532_at) | Direction CARD16 (1552701_a_at) | Direction CCR1 (205098_at) | Direction CDCP1 (1554110_at) | Direction CDR2 (209501_at) | Direction CHST2 (203921_at) | Direction CLGN (205830_at) | Direction CNOT3 (203239_s_at) | Direction CPM (241765_at) | Direction CPM (243403_x_at) | Direction CREM (207630_s_at) | Direction CUL4B (202213_s_at) | Direction CXCL1 (204470_at) | Direction CYP7B1 (207386_at) | Direction CYR61 (210764_s_at) | Direction DENND3 (212975_at) | Direction DENND5B (228551_at) | Direction DGKI (206806_at) | Direction DNAJB9 (202842_s_at) | Direction DNAJB9 (1554462_a_at) | Direction DNAJC10 (221781_s_at) | Direction DNAJC10 (221782_at) | Direction DOCK4 (205003_at) | Direction DOCK5 (230206_at) | Direction DOCK5 (230263_s_at) | Direction DOK6 (236290_at) | Direction DSEL (232825_s_at) | Direction DUSP4 (204015_s_at) | Direction DZIP1 (204557_s_at) | Direction EIF2AK3 (218696_at) | Direction ELL2 (214446_at) | Direction ELTD1 (219134_at) | Direction ENPP1 (205066_s_at) | Direction ENTPD7 (220153_at) | Direction EPS8 (202609_at) | Direction EREG (205767_at) | Direction ERO1LB (220012_at) | Direction FADS1 (208963_x_at) | Direction FADS1 (208964_s_at) | Direction FAM20A (226804_at) | Direction FAM107B (223058_at) | Direction FAM107B (223059_s_at) | Direction FAR2 (220615_s_at) | Direction FAT4 (219427_at) | Direction FEM1B (212374_at) | Direction FGF7 (1555103_s_at) | Direction FGF7 /// KGFLP1 /// KGFLP2 (1554741_s_at) | Direction FHOD3 (218980_at) | Direction FKBP11 (219117_s_at) | Direction FKBP11 (219118_at) | Direction FMN2 (1555471_a_at) | Direction FN1 (214701_s_at) | Direction FN1 (214702_at) | Direction FOXJ3 (217310_s_at) | Direction FPR1 (205119_s_at) | Direction GAS1 (204457_s_at) | Direction GCLM (203925_at) | Direction GCLM (236140_at) | Direction GEM (204472_at) | Direction GFPT1 (226886_at) | Direction GFPT2 (205100_at) | Direction GLIPR1 (204222_s_at) | Direction GRAMD1A (224807_at) | Direction GRAMD1B (212906_at) | Direction GUCY1A3 (221942_s_at) | Direction GUCY1A3 (229530_at) | Direction HERC3 (1554290_at) | Direction HEY1 (44783_s_at) | Direction HIST1H2AB /// HIST1H2AE (214469_at) | Direction HIST1H2AD /// HIST1H3A /// HIST1H3B /// HIST1H3C /// HIST1H3D /// HIST1H3E /// HIST1H3F /// HIST1H3G /// HIST1H3H /// HIST1H3I /// HIST1H3J (214472_at) | Direction HIST2H2AA3 /// HIST2H2AA4 (214290_s_at) | Direction HK2 (222305_at) | Direction HOXB2 (205453_at) | Direction HSD17B2 (204818_at) | Direction HSPA13 (202557_at) | Direction ID2 /// ID2B (213931_at) | Direction IGFBP5 (211958_at) | Direction ING1 (209808_x_at) | Direction IRAK2 (231779_at) | Direction IRAK3 (220034_at) | Direction ITPRIP (225582_at) | Direction JHDM1D (225142_at) | Direction KCNA3 (207237_at) | Direction KCNE4 (222379_at) | Direction KCNE4 (1552508_at) | Direction KCNJ8 (205303_at) | Direction KCNJ8 (205304_s_at) | Direction KLF15 (231015_at) | Direction KLHL29 (229310_at) | Direction LCP1 (208885_at) | Direction LOC285628 (232504_at) | Direction LOC440028 (1562606_a_at) | Direction LOC729222 /// PPFIBP1 (214375_at) | Direction LOC100128821 /// ZEB2 (235593_at) | Direction LOC100132244 (229438_at) | Direction LPAR1 (204036_at) | Direction LPAR1 (204037_at) | Direction LPAR1 (204038_s_at) | Direction LPPR4 (213496_at) | Direction LRCH2 (227688_at) | Direction LRRK2 (229584_at) | Direction MAGEA4 (214254_at) | Direction MAP3K4 (216199_s_at) | Direction MAP3K5 (203836_s_at) | Direction MAP9 (220145_at) | Direction MASP1 (232224_at) | Direction MASP1 (235770_at) | Direction MESDC1 (223264_at) | Direction MGST1 (239001_at) | Direction MMD (203414_at) | Direction MTHFD2L (220346_at) | Direction MYO3B (1552578_a_at) | Direction NAMPT (217738_at) | Direction NEGR1 (1553194_at) | Direction NEXN (226103_at) | Direction NFKB2 (207535_s_at) | Direction NFKBIZ (223217_s_at) | Direction NOVA1 (205794_s_at) | Direction NR4A1 (202340_x_at) | Direction NRP2 (228699_at) | Direction OLAH (222945_x_at) | Direction PAPPA (201981_at) | Direction PAPPA (224940_s_at) | Direction PAPPA (224941_at) | Direction PAPPA (228128_x_at) | Direction PAPPA (1559400_s_at) | Direction PCDH7 (210941_at) | Direction PCSK1 (205825_at) | Direction PDE4D (211840_s_at) | Direction PEG10 (212092_at) | Direction PF4 (206390_x_at) | Direction PGM2L1 (229256_at) | Direction PHLDA1 (217996_at) | Direction PHTF1 (215285_s_at) | Direction PI15 (229947_at) | Direction PID1 (219093_at) | Direction PID1 (237867_s_at) | Direction PISD (202392_s_at) | Direction PITPNC1 (238649_at) | Direction PLAUR (211924_s_at) | Direction PLEKHA3 (223370_at) | Direction PTGER4 (204897_at) | Direction PTGES (207388_s_at) | Direction PTGES (210367_s_at) | Direction PTGS1 (205128_x_at) | Direction PTGS1 (215813_s_at) | Direction PTHLH (206300_s_at) | Direction PTHLH (211756_at) | Direction PTPRG (204944_at) | Direction QKI (228540_at) | Direction RAB3B (205924_at) | Direction RAB3B (227123_at) | Direction RAB23 (220955_x_at) | Direction RABGGTB (209180_at) | Direction RABGGTB (213704_at) | Direction RAI14 (202052_s_at) | Direction RASSF8 (235996_at) | Direction RGS3 (203823_at) | Direction RGS5 (209070_s_at) | Direction RGS12 (242079_at) | Direction RHOQ (212122_at) | Direction SEC24A (212902_at) | Direction SEMA3A (206805_at) | Direction SETDB2 (235339_at) | Direction SGK1 (201739_at) | Direction SH3RF3 (228461_at) | Direction SHOX (207570_at) | Direction SLC6A15 (232263_at) | Direction SLC11A2 (237106_at) | Direction SLC20A1 (230494_at) | Direction SLC43A3 (210692_s_at) | Direction SLFN11 (226743_at) | Direction SLIT2 (209897_s_at) | Direction SNHG12 (223774_at) | Direction SOCS2 (203373_at) | Direction SPON1 (209437_s_at) | Direction SPON1 (213993_at) | Direction SQSTM1 (213112_s_at) | Direction ST3GAL1 (208322_s_at) | Direction ST3GAL1 (225033_at) | Direction STK17B (205214_at) | Direction SULF1 (212344_at) | Direction TAF1A (206613_s_at) | Direction TAGLN (205547_s_at) | Direction TBC1D1 (212350_at) | Direction TBC1D1 (227945_at) | Direction TGM2 (201042_at) | Direction THBS1 (201108_s_at) | Direction THBS1 (239336_at) | Direction THRAP3 (242163_at) | Direction TMEM38B (222735_at) | Direction TMEM38B (222736_s_at) | Direction TMEM39A (218615_s_at) | Direction TMEM39A (222690_s_at) | Direction TMTC1 (226322_at) | Direction TMTC1 (226931_at) | Direction TNC (216005_at) | Direction TNFAIP6 (206026_s_at) | Direction TNIP3 (220655_at) | Direction TRPA1 (217590_s_at) | Direction TRPC4 (224220_x_at) | Direction UBE2B (239163_at)
